Results on 4 molecules are retold here after patent US7829591B2, “Flavanone compound and uses thereof” (Pokka Corporation, priority 2003, dated 2010).

Experiment [1] can be described thus: DPPH radical scavenging activity test. It is filed as biochemical. The settings on record: for Radical Scavenging Activity (%) from DPPH Radical Scavenging Activity Test: 25 μM sample solution in ethanol, 1 h in dark, absorbance 517 nm, average ± SD of three runs. Here is the method:
DPPH (α,α-diphenyl-β-picrylhydradil) is a purple stable radical having a maximum absorption at 517 nm, which is converted into colorless hydrazine by gaining hydrogen. This color reaction was utilized so as to determine the radical scavenging activity of each of Compounds 1 to 4 and the like. That is, each of Compounds 1 to 4 was dissolved in ethanol to prepare 3 ml of a sample solution having a concentration of 25 μM. Thereafter, to each of the resultant sample solutions, 0.75 ml of a 0.5 mM DPPH solution (whose solvent was ethanol) was added and stirred, and reacted in a dark place for one hour, followed by the determination of an absorbance at 517 nm. Furthermore, in place of Compounds 1 to 4, BHT (butylated hydroxytoluene), α-tocopherol or eriodictyol was used so as to determine an absorbance according to a similar procedure to the above. Besides, instead of the above sample solutions, ethanol was used as a control so as to determine an absorbance according to a similar procedure to the above. Then the radical scavenging activity (%) of each of the materials was calculated using the following calculation formula 1. Incidentally, each of values shown in Table 1 is the average value and standard deviation of values obtained from three runs. (Radical Scavenging Activity)=[{(Absorbance of Control)−(Absorbance of Sample Solution)}/(Absorbance of Control)]×100 Calculation Formula 1
A general note: DPPH is a stable violet radical that fades when it is reduced.

Experiment [2] relates to breast cancer cells (MCF-7). Nature of the experiment: Breast cancer cell proliferation-inhibition test. Particulars: for Relative Value of Living Cells: 0.1 nM estradiol, Control 1 at 0 day = 1; for inhibiting effect on the proliferation of breast cancer cells (in words): 20 μM, compared with Control 1. It counts as cell-based. The procedure:
When breast cancer cells (MCF-7) are cultured, if estradiol (or 17β-estradiol) having a cell-proliferation accelerating action, is added thereto, the proliferation of breast cancer cells can be simply promoted in a short period. This phenomenon was utilized so as to examine the effect of each of Compounds 1 to 4 and the like on the proliferation inhibition of breast cancer cells. That is, first of all, each of Compounds 1 to 4 was diluted with dimethyl sulfoxide to prepare a sample solution. Thereafter, 2×10^3 of MCF-7 were inoculated in each well of a 96-well plate, and estradiol and the sample solution were added thereto after 4 hours. Estradiol was added to each compartment so that the final concentration of estradiol can be 0.1 nM, and the final concentration of the sample solution can be 0.2 μM, 2 μM, or 20 μM. After incubation for a predetermined period of time (three or five days), each of the media was replaced with a new medium, and an enzyme solution (Cell counting Kit-8: Wako) was added to the new medium in an amount of 10% of the new medium. After maintained the medium in an incubator at a temperature of 37° C. for two hours, the absorbance of the medium was determined at a wavelength of 450 nm (a reference wave length of 630 nm) by means of a spectrophotometer so as to quantify the number of living cells in each compartment.
As for the compartment whose incubation period is predetermined to be five days, on the third day of the incubation, the medium was replaced with a new medium, and thereafter, estradiol and a sample solution were added to the new medium, and the incubation was continued till fifth day. As for the compartment whose incubation period is predetermined to be 0 day, at four hours after the cells were inoculated, an enzyme solution was added to the medium. The medium was maintained in an incubator at a temperature of 37° C. for two hours, followed by determining the absorbance.
Instead of Compounds 1 to 4, eriodictyol was used to determine the absorbance according to a similar procedure to the above-mentioned one, and thus the number of living cells in each compartment was quantified. Furthermore, Control 1 to which neither estradiol nor a sample had been added was used to determine the absorbance according to a similar procedure to the above-mentioned one, and thus the number of living cells in each compartment was quantified, while Control 2 to which no sample had been added was used to determine the absorbance according to a similar procedure to the above-mentioned one, and thus the number of living cells in each compartment was quantified.
When it is assumed that the number of living cells of Control 1 as quantified after a zero-day incubation period is 1, the relative value of living cells as quantified in each of the runs mentioned above is shown in Table 2. Incidentally, each of values shown in Table 2 is the average value and standard deviation of values obtained from eight wells.

Where [3] appears, read: 0.2 μM sample, after 3-days incubation.
Setting [4] is: 0.2 μM sample, after 5-days incubation.
The mark [5] stands for this setting: 0.2 μM sample, on 0-day incubation, mean ± SD of eight wells.
Where [6] appears, read: 2 μM sample, after 3-days incubation.
Where [7] appears, read: 2 μM sample, after 5-days incubation.
The mark [8] stands for this setting: 2 μM sample, on 0-day incubation.
Where [9] appears, read: 20 μM sample, after 3-days incubation.
Setting [10] is: 20 μM sample, after 5-days incubation.
[11] abbreviates: 20 μM sample, on 0-day incubation.

For the molecule `CC(C)=CCC/C(C)=C/Cc1c(O)cc2c(c1O)C(=O)C[C@@H](c1ccc(O)c(O)c1)O2` [Compound 3, 5,7,3′,4′-tetrahydroxy-6-C-geranylflavanone], the “Radical Scavenging Activity (%) from DPPH Radical Scavenging Activity Test” value (“Radical Scavenging Activity (%)” for short) in experiment [1] is listed as 64.00 ± 0.58%. Moreover, the “radical scavenging activity (in words)” value in experiment [1] (comparison from Table 1) was “highest radical scavenging activity”. Further, the “Relative Value of Living Cells” value in experiment [2] (setting [3]) is reported as 2.94 ± 0.20; in experiment [2] (setting [4]), 6.99 ± 0.66; in experiment [2] (setting [5]), 0.99 ± 0.05; in experiment [2] (setting [6]), 2.53 ± 0.30; in experiment [2] (setting [7]) it was 5.38 ± 0.44; in experiment [2] (setting [8]), 1.01 ± 0.05. For the same molecule, the “Relative Value of Living Cells” value came to 1.21 ± 0.22 in experiment [2] (setting [9]), 0.89 ± 0.12 in experiment [2] (setting [10]) and 0.96 ± 0.04 in experiment [2] (setting [11]). In experiment [2], the “inhibiting effect on the proliferation of breast cancer cells (in words)” value is recorded as “cytotoxic effect upon breast cancer cells”.

For `CC(C)=CCC/C(C)=C/Cc1cc([C@@H]2CC(=O)c3c(O)cc(O)cc3O2)cc(O)c1O` [Compound 2, 5,7,3′,4′-tetrahydroxy-5′-C-geranylflavanone], in experiment [1], the “Radical Scavenging Activity (%)” value is reported as 49.86 ± 0.96%. In addition, the “Relative Value of Living Cells” value in experiment [2] (setting [3]) amounted to 2.97 ± 0.37; in experiment [2] (setting [4]), 6.83 ± 0.58; in experiment [2] (setting [5]) it was 0.95 ± 0.04; in experiment [2] (setting [6]) it was 2.68 ± 0.19; in experiment [2] (setting [7]), 6.59 ± 0.50; in experiment [2] (setting [8]), 0.99 ± 0.04. Besides, the “Relative Value of Living Cells” value in experiment [2] (setting [9]) was 2.59 ± 0.21; in experiment [2] (setting [10]), 5.59 ± 1.01; in experiment [2] (setting [11]), 1.00 ± 0.07.

`CC(C)=CCC/C(C)=C/Cc1c([C@@H]2CC(=O)c3c(O)cc(O)cc3O2)ccc(O)c1O` [Compound 1, 5,7,3′,4′-tetrahydroxy-2′-C-geranylflavanone]: the “Radical Scavenging Activity (%)” value in experiment [1] worked out at 55.35 ± 0.43%. Moreover, the “Relative Value of Living Cells” value in experiment [2] (setting [3]) came out at 2.86 ± 0.14; in experiment [2] (setting [4]), 7.26 ± 0.48; in experiment [2] (setting [5]), 0.98 ± 0.04; in experiment [2] (setting [6]) it was 2.58 ± 0.11; in experiment [2] (setting [7]) it was 6.01 ± 0.25; in experiment [2] (setting [8]), 0.99 ± 0.05. In addition, the “Relative Value of Living Cells” value in experiment [2] (setting [9]) was determined as 2.22 ± 0.19; in experiment [2] (setting [10]) it was 4.17 ± 0.50; in experiment [2] (setting [11]), 1.01 ± 0.05.

For the molecule `CC(C)=CCC/C(C)=C/Cc1c([C@@H]2CC(=O)c3c(cc(O)c(CC=C(C)C)c3O)O2)ccc(O)c1O` [Compound 4, 5,7,3′,4′-tetrahydroxy-6-(3′″,3′″-dimethylallyl)-2′-C-geranylflavanone], in experiment [1], the “Radical Scavenging Activity (%)” value is recorded as 50.79 ± 0.08%. Also, the “Relative Value of Living Cells” value in experiment [2] (setting [3]) is recorded as 2.97 ± 0.27; in experiment [2] (setting [4]) it was 6.30 ± 0.54; in experiment [2] (setting [5]), 0.99 ± 0.04; in experiment [2] (setting [6]), 3.03 ± 0.30; in experiment [2] (setting [7]), 6.41 ± 0.53; in experiment [2] (setting [8]), 1.00 ± 0.07. The “Relative Value of Living Cells” value in experiment [2] (setting [9]) was 1.27 ± 0.20; in experiment [2] (setting [10]) it was 1.01 ± 0.12; in experiment [2] (setting [11]), 0.98 ± 0.04. Further, the “inhibiting effect on the proliferation of breast cancer cells (in words)” value in experiment [2] is given as “cytotoxic effect upon breast cancer cells”.
